Results on seven molecules are retold here after patent US10172846.

The conditions of series [1]: rcm bond, 14-membered ring.
The conditions of series [2]: from (1R,2)-1-{[(1R,2R,4R)-2-(N′-tert-Butoxycarbonyl-N-hept-6-enyl-hydrazinocarbonyl)-4-(7-methoxy-2-phenyl-quinolin-4-yloxy)-cyclopentanecarbonyl]-amino}-2-vinyl-cyclopropanecarboxylic acid ethyl ester; rcm bond; 15-membered ring; Hoveyda-Grubbs II; DCM; 7.0 mM.
For series [3] the following is noted: rcm bond, Hoveyda-Grubbs 2nd generation.

Like-named read-outs stand apart in the source and are kept apart here.

As for `CCOC(=O)C12CC1C=CCCCCN(C)C(=O)C1CC(OS(=O)(=O)c3ccc(Br)cc3)CC1C(=O)N2` (centres unmarked), in series [1] (from 1-{(4-(4-Bromo-benzensulphonyloxy-2-(hex-5-enyl-methyl-carbamoyl)-cyclopentanecarbonyl-amino}2-vinyl-cyclopropanecarboxylic add ethyl ester)), Hoveyda-Grubbs I, DCM, 4.2 mM), the ring closure, isolated yield is 60%.
Molecule `CCOC(=O)[C@@]12C[C@H]1/C=C\CCCCCN(NC(=O)OC(C)(C)C)C(=O)[C@@H]1C[C@H](Oc3cc(-c4ccccc4)nc4cc(OC)ccc34)C[C@H]1C(=O)N2` gave a ring closure, yield after HPLC in series [2] of 70%. Moreover, the ring closure, yield of all isomers in series [3] (from C=CCCCCCN(NC(=O)OC(C)(C)C)C(=O)[C@@H]1C[C@H](Oc2cc(-c3ccccc3)nc3cc(OC)ccc23)C[C@H]1C(=O)N[C@]1(C(=O)OCC)C[C@H]1C=C, DCM, 6.97 mM, 40.0 °C, 16.0 h) is 70%.
In series [3] (from C=CCCCCN(C)C(=O)[C@@H]1C[C@H](Oc2cc(-c3ccccc3)nc3cc(OC)ccc23)C[C@H]1C(=O)N[C@]1(C(=O)OCC)C[C@H]1C=C, DCE, 2.02 mM, 83.0 °C), `CCOC(=O)[C@@]12C[C@H]1C=CCCCCN(C)C(=O)[C@@H]1C[C@H](Oc3cc(-c4ccccc4)nc4cc(OC)ccc34)C[C@H]1C(=O)N2` gave a ring closure, yield of all isomers of 37%.
Molecule `CCOC(=O)C12CC1C=CCCCCNC(=O)C1CC(Oc3cc(-c4ccccc4)nc4cc(OC)ccc34)CC1C(=O)N2C` (centres unmarked) gave a ring closure, isolated yield in series [1] (from 1-{[2-Hex-5-enyl-methyl-carbamoyl)-4-(7-methoxy-2-phenyl-quinolin-4-yloxy)-cyclopentanecarbonyl]-amino-2-vinyl-cyclopropanecarboxylic add ethyl ester, Hoveyda-Grubbs II, dichloroethane, 2.02 mM) of 37%.
On to `CN1CCCCC=CC2CC2(C(=O)NS(=O)(=O)C2CC2)NC(=O)C2CC(O)CC2C1=O` (centres unmarked), for which the ring closure, isolated yield in series [1] (from 4-Hydroxycyclopentane-1,2-dicarboxylic acid 1-[(1-cyclopropanesulphonylaminocarbonyl-2-vinylcyclopropyl)-amide] 2-(hex-5-enyl-methylamide), Hoveyda-Grubbs II, 1,2-dichloroethane, 5.4 mM, 160.0 °C) is 26%.
`CCOC(=O)C12CC1C=CCCCCNC(=O)C1CC(Oc3cc(-c4ccccc4)nc4cc(OC)ccc34)CC1C(=O)N2` (centres unmarked) returned a ring closure, isolated yield in series [1] (from 1-{[2-Hex-5-enylcarbamoyl-4-(7-methoxy-2-phenyl-quinolin-4-yloxy)-cyclopentanecarbonyl]-amino}-2-vinyl-cycloprpanecarboxylic acid ethyl ester, Hoveyda-Grubbs II, DCM, 5.8 mM) of 32%.
As for `CCOC(=O)[C@@]12C[C@H]1C=CCCCCNC(=O)[C@@H]1C[C@H](Oc3cc(-c4ccccc4)nc4cc(OC)ccc34)C[C@H]1C(=O)N2`, in series [3] (from C=CCCCCNC(=O)[C@@H]1C[C@H](Oc2cc(-c3ccccc3)nc3cc(OC)ccc23)C[C@H]1C(=O)N[C@]1(C(=O)OCC)C[C@H]1C=C, DCM, 5.8 mM, 40.0 °C), the ring closure, yield of all isomers worked out at 32%.
